Measured values as given in ChEMBL document CHEMBL3585305, “Structure-Based Design and Optimization of Multitarget-Directed 2H-Chromen-2-one Derivatives as Potent Inhibitors of Monoamine Oxidase B and Cholinesterases” (J Med Chem, 2015).
Active and inactive are the calls of the source. The rule behind the calls is not given here.

Experiments:
[1] = biological target: T1, Amine oxidase [flavin-containing] A (Homo sapiens, UniProt P21397); assay: Inhibition of human recombinant MAO-A using kynuramine substrate at 10 uM by spectrophotometric assay
T1 sequence (P21397 whole entry): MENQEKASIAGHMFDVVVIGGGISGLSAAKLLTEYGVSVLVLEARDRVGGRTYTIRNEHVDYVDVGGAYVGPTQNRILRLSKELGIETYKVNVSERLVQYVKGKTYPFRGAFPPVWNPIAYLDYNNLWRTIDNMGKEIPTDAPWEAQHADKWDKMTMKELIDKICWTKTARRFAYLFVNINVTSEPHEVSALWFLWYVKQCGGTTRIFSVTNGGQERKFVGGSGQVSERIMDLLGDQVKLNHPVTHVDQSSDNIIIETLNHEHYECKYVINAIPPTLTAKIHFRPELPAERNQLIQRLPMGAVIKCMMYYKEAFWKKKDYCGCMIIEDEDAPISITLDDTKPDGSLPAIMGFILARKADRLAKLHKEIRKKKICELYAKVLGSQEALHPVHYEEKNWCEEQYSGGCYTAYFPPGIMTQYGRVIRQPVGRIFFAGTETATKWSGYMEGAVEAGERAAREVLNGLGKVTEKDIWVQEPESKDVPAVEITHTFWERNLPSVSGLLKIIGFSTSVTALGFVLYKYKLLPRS

[2] = biological target: T2, Amine oxidase [flavin-containing] B (Homo sapiens, UniProt P27338); assay: Inhibition of human recombinant MAO-B using kynuramine substrate at 10 uM by spectrophotometric assay
T2 sequence (P27338 whole entry): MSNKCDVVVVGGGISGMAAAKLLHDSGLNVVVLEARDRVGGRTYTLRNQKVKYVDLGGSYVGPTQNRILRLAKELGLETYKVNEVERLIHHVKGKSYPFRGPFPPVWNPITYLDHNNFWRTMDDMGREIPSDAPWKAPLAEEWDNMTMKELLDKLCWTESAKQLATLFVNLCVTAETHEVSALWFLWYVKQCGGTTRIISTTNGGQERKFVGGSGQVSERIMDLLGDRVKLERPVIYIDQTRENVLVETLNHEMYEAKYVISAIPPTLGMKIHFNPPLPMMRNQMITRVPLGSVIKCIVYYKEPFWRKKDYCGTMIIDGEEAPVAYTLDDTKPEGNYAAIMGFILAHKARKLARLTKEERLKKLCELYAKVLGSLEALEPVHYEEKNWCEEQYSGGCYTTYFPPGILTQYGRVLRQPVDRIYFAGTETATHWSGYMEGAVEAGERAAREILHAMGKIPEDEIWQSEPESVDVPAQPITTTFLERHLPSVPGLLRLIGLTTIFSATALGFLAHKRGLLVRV

MDR1 [3] = assay: Apparent permeability from apical to basolateral side in MDCK2 cells expressing MDR1 at 200 ug/ml by UV-visible spectroscopy; assay type: ADME, cell-based, Canis lupus familiaris, MDCK-II; conditions: dog, MDCK-MDR1
SH-SY5Y [4] = assay: Neuroprotective activity in human SH-SY5Y cells assessed as inhibition H2O2-induced reduction of cell survival at 1 uM after 24 hrs by MTT assay; assay type: functional, cell-based
SH-SY5Y [5] = assay: Neuroprotective activity in human SH-SY5Y cells assessed as inhibition H2O2-induced reduction of cell survival at 10 uM after 24 hrs by MTT assay; assay type: functional, cell-based
MDR1 [6] = assay: Efflux ratio of apparent permeability from basolateral to apical side to apical to basolateral side in MDCK2 cells expressing MDR1 at 200 ug/ml by UV-visible spectroscopy; assay type: ADME, cell-based, Canis lupus familiaris, MDCK-II; conditions: dog, MDCK-MDR1
MDR1 [7] = assay: Apparent permeability from basolateral to apical side in MDCK2 cells expressing MDR1 at 200 ug/ml by UV-visible spectroscopy; assay type: ADME, cell-based, Canis lupus familiaris, MDCK-II; conditions: dog, MDCK-MDR1
[8] = biological target: T3, Amine oxidase [flavin-containing] A (Rattus norvegicus, UniProt P21396); assay: Inhibition of rat brain MAO-A using kynuramine substrate […] at 10 uM by spectrophotometric assay
T3 sequence (P21396 whole entry): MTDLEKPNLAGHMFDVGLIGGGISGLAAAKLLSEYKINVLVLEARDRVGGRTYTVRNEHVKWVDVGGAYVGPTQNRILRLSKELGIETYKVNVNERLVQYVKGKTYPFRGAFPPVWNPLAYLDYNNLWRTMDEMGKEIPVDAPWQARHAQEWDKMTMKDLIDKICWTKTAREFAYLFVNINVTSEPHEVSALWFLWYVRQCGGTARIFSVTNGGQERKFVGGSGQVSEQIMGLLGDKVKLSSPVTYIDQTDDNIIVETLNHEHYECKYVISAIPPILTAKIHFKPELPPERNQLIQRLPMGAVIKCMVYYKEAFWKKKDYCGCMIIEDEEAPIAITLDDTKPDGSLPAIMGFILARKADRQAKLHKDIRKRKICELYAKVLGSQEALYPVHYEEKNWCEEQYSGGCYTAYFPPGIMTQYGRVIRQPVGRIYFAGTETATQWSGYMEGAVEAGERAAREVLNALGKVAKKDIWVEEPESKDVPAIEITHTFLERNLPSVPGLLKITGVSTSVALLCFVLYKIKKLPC

Acetylcholinesterase [9] = biological target: T4, Acetylcholinesterase (Electrophorus electricus, UniProt O42275); assay: Inhibition of electric eel AChE by spectrophotometric Ellman's method
[10] = biological target: T2, Amine oxidase [flavin-containing] B
Description: Inhibition of human recombinant MAO-B using kynuramine substrate by spectrophotometric assay

[11] = biological target: T5, Amine oxidase [flavin-containing] B (Rattus norvegicus, UniProt P19643); assay: Inhibition of rat brain MAO-B using kynuramine substrate […] by spectrophotometric assay
T5 sequence (P19643 whole entry): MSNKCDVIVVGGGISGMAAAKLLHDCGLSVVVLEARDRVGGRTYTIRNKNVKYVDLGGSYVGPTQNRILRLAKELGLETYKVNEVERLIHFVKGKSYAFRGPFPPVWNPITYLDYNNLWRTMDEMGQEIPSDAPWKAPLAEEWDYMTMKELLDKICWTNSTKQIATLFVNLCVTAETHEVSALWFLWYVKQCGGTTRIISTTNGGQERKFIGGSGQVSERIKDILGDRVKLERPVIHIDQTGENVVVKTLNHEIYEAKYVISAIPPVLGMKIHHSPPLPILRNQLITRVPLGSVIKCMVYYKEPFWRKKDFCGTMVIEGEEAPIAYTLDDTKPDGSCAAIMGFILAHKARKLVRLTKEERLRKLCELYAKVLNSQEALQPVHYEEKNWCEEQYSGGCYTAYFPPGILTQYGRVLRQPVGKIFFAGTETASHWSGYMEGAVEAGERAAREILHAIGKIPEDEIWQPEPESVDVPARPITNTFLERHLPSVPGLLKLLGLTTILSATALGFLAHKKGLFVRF

Rattus norvegicus = species on record: Rattus norvegicus; assay: Selectivity index, ratio of IC50 for rat brain MAO-A to IC50 for rat brain MAO-B
[12] = biological target: T1, Amine oxidase [flavin-containing] A; assay: Inhibition of human recombinant MAO-A using kynuramine substrate by spectrophotometric assay
Acetylcholinesterase [13] = biological target: Acetylcholinesterase (Homo sapiens, UniProt P22303); assay: Inhibition of human recombinant AChE by spectrophotometric Ellman's method
[14] = biological target: T3, Amine oxidase [flavin-containing] A; assay: Inhibition of rat brain MAO-A using kynuramine substrate […] by spectrophotometric assay
Cholinesterase [15] = biological target: Cholinesterase (Equus caballus, UniProt P81908); assay: Inhibition of equine serum BuChE by spectrophotometric Ellman's method
Cholinesterase [16] = biological target: T6, Cholinesterase (Homo sapiens, UniProt P06276); assay: Inhibition of human serum BuChE at 10 uM by spectrophotometric Ellman's method
Cholinesterase [17] = biological target: T6, Cholinesterase; assay: Inhibition of human serum BuChE by spectrophotometric Ellman's method
[18] = biological target: T5, Amine oxidase [flavin-containing] B; assay: Inhibition of rat brain MAO-B using kynuramine substrate […] at 10 uM by spectrophotometric assay
[19] = biological target: T1, Amine oxidase [flavin-containing] A; assay: Inhibition of human recombinant MAO-A using kynuramine substrate at 4 uM by spectrophotometric assay
Acetylcholinesterase [20] = biological target: T4, Acetylcholinesterase; assay: Mixed type inhibition of electric eel AChE by Lineweaver-Burk plot

Chain of Cholinesterase (Equus caballus, UniProt P81908) (P81908 whole entry): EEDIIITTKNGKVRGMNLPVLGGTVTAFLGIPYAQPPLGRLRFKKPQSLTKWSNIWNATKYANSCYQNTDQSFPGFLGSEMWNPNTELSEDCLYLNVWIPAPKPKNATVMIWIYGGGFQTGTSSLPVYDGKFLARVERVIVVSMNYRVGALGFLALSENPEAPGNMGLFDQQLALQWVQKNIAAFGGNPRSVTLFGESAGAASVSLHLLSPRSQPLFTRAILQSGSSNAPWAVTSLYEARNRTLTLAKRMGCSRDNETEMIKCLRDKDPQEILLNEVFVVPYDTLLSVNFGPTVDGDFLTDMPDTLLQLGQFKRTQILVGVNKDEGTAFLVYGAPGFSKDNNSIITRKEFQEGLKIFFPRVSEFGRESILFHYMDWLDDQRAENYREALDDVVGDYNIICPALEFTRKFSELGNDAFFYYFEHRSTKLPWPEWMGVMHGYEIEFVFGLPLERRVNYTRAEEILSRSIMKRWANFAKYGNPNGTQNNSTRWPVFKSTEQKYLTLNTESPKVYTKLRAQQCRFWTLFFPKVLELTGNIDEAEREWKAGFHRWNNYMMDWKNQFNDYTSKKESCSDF
Chain of Acetylcholinesterase (Homo sapiens, UniProt P22303) (P22303 whole entry): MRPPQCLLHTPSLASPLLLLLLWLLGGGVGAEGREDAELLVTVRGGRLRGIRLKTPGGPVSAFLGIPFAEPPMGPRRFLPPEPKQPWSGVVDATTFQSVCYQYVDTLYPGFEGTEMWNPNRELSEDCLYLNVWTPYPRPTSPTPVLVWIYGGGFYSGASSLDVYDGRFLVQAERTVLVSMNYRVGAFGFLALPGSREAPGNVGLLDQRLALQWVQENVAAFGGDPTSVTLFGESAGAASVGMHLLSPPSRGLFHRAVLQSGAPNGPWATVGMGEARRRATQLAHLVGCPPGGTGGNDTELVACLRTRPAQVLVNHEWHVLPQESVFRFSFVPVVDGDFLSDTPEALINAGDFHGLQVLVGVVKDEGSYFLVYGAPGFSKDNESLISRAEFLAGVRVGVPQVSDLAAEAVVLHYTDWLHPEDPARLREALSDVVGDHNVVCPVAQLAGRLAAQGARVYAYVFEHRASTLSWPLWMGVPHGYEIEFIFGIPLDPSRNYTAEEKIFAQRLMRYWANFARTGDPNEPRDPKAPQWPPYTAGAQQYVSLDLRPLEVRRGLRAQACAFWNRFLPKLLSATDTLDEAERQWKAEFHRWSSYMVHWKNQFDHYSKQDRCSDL
T6 sequence (P06276 whole entry): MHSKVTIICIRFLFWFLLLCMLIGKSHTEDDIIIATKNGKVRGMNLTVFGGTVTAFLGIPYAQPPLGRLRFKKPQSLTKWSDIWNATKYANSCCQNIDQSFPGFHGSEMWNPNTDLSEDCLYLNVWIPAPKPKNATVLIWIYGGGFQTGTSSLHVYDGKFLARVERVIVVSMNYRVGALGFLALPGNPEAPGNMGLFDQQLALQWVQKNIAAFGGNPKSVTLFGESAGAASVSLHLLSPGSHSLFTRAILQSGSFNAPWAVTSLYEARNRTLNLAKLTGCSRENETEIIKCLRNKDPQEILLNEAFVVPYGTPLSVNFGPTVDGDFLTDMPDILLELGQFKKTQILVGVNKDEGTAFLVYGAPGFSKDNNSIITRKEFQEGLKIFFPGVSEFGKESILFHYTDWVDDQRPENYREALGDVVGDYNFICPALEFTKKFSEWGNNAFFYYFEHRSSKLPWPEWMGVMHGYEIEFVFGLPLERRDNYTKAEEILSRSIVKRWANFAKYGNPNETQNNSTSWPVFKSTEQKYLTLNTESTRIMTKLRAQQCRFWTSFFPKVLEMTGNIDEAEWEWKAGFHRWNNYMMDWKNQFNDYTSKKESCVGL
T4 sequence (O42275 whole entry): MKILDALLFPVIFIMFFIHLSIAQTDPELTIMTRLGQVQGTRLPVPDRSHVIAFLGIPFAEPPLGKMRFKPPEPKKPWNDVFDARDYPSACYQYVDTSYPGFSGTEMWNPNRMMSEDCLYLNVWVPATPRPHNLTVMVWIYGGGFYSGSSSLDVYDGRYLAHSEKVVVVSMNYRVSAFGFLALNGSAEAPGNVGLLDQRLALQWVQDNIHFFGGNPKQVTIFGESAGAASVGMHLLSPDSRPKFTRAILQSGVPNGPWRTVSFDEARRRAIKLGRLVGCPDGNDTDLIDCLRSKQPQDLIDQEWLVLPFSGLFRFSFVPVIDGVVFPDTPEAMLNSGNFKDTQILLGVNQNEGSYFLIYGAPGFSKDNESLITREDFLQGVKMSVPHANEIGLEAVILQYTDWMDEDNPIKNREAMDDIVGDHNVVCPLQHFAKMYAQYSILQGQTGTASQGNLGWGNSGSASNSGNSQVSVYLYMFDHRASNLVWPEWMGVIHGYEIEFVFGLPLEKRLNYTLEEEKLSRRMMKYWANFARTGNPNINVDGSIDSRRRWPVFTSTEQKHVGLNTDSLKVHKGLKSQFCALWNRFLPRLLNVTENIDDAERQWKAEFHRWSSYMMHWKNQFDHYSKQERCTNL

Compound: COc1cc2c(cc1OC)C(=O)C(CC1CCN(Cc3ccccc3)CC1)C2 (configuration not stated) [DONEPEZIL]
- inhibition at 10 µM [1]: 0%
- inhibition at 10 µM [2]: 0%

Compound: CN(Cc1ccccc1)Cc1ccc(COc2ccc3c(CO)cc(=O)oc3c2)cc1.Cl
- Papp A→B at 200 ug/ml (MDR1 [3]): 19.1 ×10⁻⁶ cm/s
- Activity (SH-SY5Y [4]): Active
- Activity (SH-SY5Y [5]): Active
- efflux ratio at 200 ug/ml (MDR1 [6]): 1.77
- Papp B→A at 200 ug/ml (MDR1 [7]): 33.8 ×10⁻⁶ cm/s
- inhibition at 10 µM [8]: 0%

Compound: CCN(CCCCCCOc1ccc2c(C)c(C)c(=O)oc2c1)Cc1ccccc1
- IC50 (Acetylcholinesterase [9]): 320 nM
- IC50 [10]: 18 nM
- IC50 [11]: 720 nM
- Ratio IC50 (Rattus norvegicus): 3
- IC50 [12]: 115 nM
- IC50 (Acetylcholinesterase [13]): 440 nM
- IC50 [14]: 2100 nM
- IC50 (Cholinesterase [15]): 490 nM

Compound: Cc1c(C)c2ccc(OCc3ccc(CN(C)Cc4ccccc4)cc3)cc2oc1=O
- IC50 (Acetylcholinesterase [9]): 100 nM
- IC50 [10]: 53 nM
- IC50 [11]: 1200 nM
- IC50 [12]: 4300 nM
- IC50 (Acetylcholinesterase [13]): 450 nM
- inhibition (Cholinesterase [16]): 46%
- IC50 (Cholinesterase [15]): 690 nM
- inhibition at 10 µM [8]: 0%

Compound: Cc1c(C)c2ccc(OCCCCCNCc3ccccc3)cc2oc1=O
- IC50 (Acetylcholinesterase [9]): 940 nM
- IC50 [10]: 29 nM
- IC50 [11]: 500 nM
- IC50 (Cholinesterase [17]): 950 nM
- IC50 [12]: 390 nM
- IC50 (Acetylcholinesterase [13]): 300 nM
- IC50 [14]: 2200 nM
- IC50 (Cholinesterase [15]): 1800 nM

Compound: CN(Cc1ccccc1)Cc1ccc(COc2ccc3ccc(=O)[nH]c3c2)cc1
- IC50 (Acetylcholinesterase [9]): 490 nM
- IC50 [10]: 4500 nM
- inhibition at 10 µM [18]: 29%
- inhibition at 4 µM [19]: 14%
- IC50 (Acetylcholinesterase [13]): 1500 nM
- IC50 (Cholinesterase [15]): 1700 nM
- inhibition at 10 µM [8]: 10%

Compound: CN(Cc1ccc(COc2ccc3c(CO)cc(=O)oc3c2)cc1)Cc1cccc(Cl)c1
- IC50 (Acetylcholinesterase [9]): 250 nM
- IC50 [10]: 24 nM
- IC50 [11]: 240 nM
- IC50 [12]: 13000 nM
- IC50 (Acetylcholinesterase [13]): 330 nM
- inhibition (Cholinesterase [16]): 14%
- IC50 (Cholinesterase [15]): 630 nM
- inhibition at 10 µM [8]: 0%

Compound: Cc1c(C)c2ccc(OCCCCCCN(C)Cc3ccccc3)cc2oc1=O
- IC50 (Acetylcholinesterase [9]): 95 nM
- IC50 [10]: 321 nM
- IC50 [11]: 1700 nM
- IC50 (Cholinesterase [17]): 950 nM
- Ki (Acetylcholinesterase [20]): 80 nM
- Ratio IC50 (Rattus norvegicus): 0.3
- IC50 [12]: 191 nM
- IC50 (Acetylcholinesterase [13]): 340 nM
- IC50 [14]: 510 nM
- IC50 (Cholinesterase [15]): 670 nM
